The subject of this experiment is Human TLR7/8. Briefly: Human PBMC cell-based assay, TLR7/8 stimulus (RNA-Ig), cytokine ELISA. The note with it: primary human PBMC assay, TLR7/8 potency; ligand not given; read-out: Human PBMCs IC50. On the procedure: Human PBMC Cell-Based Assay. Human peripheral blood mononuclear cells (PBMC) were isolated from freshly-drawn heparinized (10 USP units/ml, Hospira, Lakeforest, Ill.) healthy donor whole blood by density gradient (Histopaque® 1077, Sigma, Inc., St. Louis, Mo.). Briefly, 25 ml blood was diluted with 15 ml PBS (without Ca^2+, Mg^2+) in a 50 ml conical tube, and 12 ml Histopaque was underlaid using a spinal needle. Tubes were centrifuged for 45 minutes at 1200 rpm (350×g), and PBMC were collected from the buffy coat. Cells were then washed twice in PBS, and red blood cells were lysed by suspension in 5 ml ammonium chloride solution (1× Red Blood Cell Lysis Buffer, eBioscience) for 5 minutes at room temperature. After a final wash in PBS, PBMC were resuspended at a final concentration of 2×10^6/ml in RPMI-1640 media with L-glutamine (Invitrogen) and supplemented with 25 mM HEPES (Mediatech, Inc, Manassas Va.), 10% fetal bovine serum (HyClone, Logan, Utah), and Penicillin-Streptomycin-Glutamine (Mediatech) and plated at 100 ul/well (2×10^5 cells/well) in tissue culture treated 96-well plates (Falcon).
Antagonist compounds solubilized and serial diluted in 100% DMSO were added in triplicate to cells to yield a final concentration of 0.1% DMSO (v/v). Hydroxychloroquine (Acros Organics) solubilized and serial diluted in PBS was added in triplicate to cells. PBMC were incubated with antagonist compounds or HCQ for 30 minutes at 37° C., 5% CO2 before adding various TLR agonist reagents in 100 ul complete media per well as follows (final concentrations indicated): R848 (Resiquimod; GLSynthesis, Worcester, Mass.) at 1 uM for TLR7 and TLR8, LPS (Sigma) at 10 ng/ml for TLR4, and CpG-2216 (InvivoGen) at 5 ug/ml for TLR9. To prepare a TLR7/8 agonist that mimics RNA-containing auto-antibody immune complexes in lupus patients, a 26-mer RNA with a sequence derived from human U1 snRNA stem loop IV [(sequence: […]-[…] (SEQ ID NO: 2) with phosphorothioate backbone] was synthesized (Dharmacon, Inc., Lafayette, Colo.), which has been shown previously to be a potent TLR7 and TLR8 agonist. This RNA molecule was diluted to 2.5 μM in serum-free RPMI, and mouse anti-human single stranded DNA monoclonal antibody (MAB3034, Millipore, Inc., Billerica, Mass.), which also cross-reacts with RNA, was added at a 1:25 dilution or at 1 ug/ml. The resulting “RNA-Ig” stimulus was incubated at room temperature for 15-30 minutes before adding to cells. PBMC were incubated with the various TLR agonists for 20 hours at 37° C., 5% CO2. Cell culture supernatants were collected, and levels of various human cytokines were assessed as indicated by standard ELISA procedure according to the manufacturer's recommended protocol (BD Biosciences, Inc., San Diego, Calif.). In a subsequent assay (Table 6) the ability of ER-899742 to block stimulation of normal PBMC by various TLR7/8 ligands, but not DNA-mediated activation of TLR9, was examined. In this assay cells were plated at 1×10^5 cells/well in 100 ul in 96-well plates.
A general note: ELISA stands for enzyme-linked immunosorbent assay.

Drawing on patent USRE47193E1, “Selectively substituted quinoline compounds” (EISAI R&D MANAGEMENT CO., LTD., priority 2013, dated 2019), this text covers IC50 for 55 molecules.

Some results are limits rather than exact numbers.

What is called IC50 is the concentration at which inhibition is half-maximal.

For the molecule `CC1CN(c2ccc(C#N)c3ncccc23)CC(C(=O)N2CCC(N(C)C)CC2)O1` (stereo not shown) [ER-899459], the IC50 turned out to be 16 nM.

With `CC1CN(c2ccc(C#N)c3ncccc23)CC(C(=O)Nc2ccnn2C)O1` (stereo not shown) [ER-898919], the IC50 is 55 nM.

As to `CC1CCN(CC2CN(c3ccc(C#N)c4ncccc34)CC(C)O2)C1` (stereo not shown) [ER-886868], the IC50 turned out to be 50 nM.

Turning to `CC1CN(c2ccc(C#N)c3ncccc23)CC(CN2CC(N3CCNCC3)C2)O1` (stereo not shown) [ER-890119], the IC50 was found to be 8 nM.

As to `C[C@@H]1CN(c2ccc(C#N)c3ncccc23)C[C@H](C(=O)NC2CC3CCC(C2)N3)O1` (stereo partly shown) [ER-899416], the half-maximal inhibitory concentration (IC50) was determined as 431 nM.

In the case of `Cc1ccc(OC[C@H]2CN(c3ccc(C#N)c4ncccc34)C[C@@H](C)O2)cc1` [ER-886516], the half-inhibitory concentration (IC50) was 56 nM.

In the case of `CC1CN(c2ccc(C#N)c3ncccc23)CC(C(=O)NCC2CN(C)CCO2)O1` (stereo not shown) [ER-898707], the IC50 came to 2 nM.

For the molecule `CC1CN(c2ccc(C#N)c3ncccc23)CC(C(=O)NCCC(O)C(F)(F)F)O1` (stereo not shown) [ER-899160], the IC50 stood at 252 nM.

`C[C@@H]1CN(c2ccc(C#N)c3ncccc23)C[C@H](CN2CCNC(=O)[C@@H]2C)O1` [ER-894484]: the IC50 was found to be 174 nM.

With `CC1CN(c2ccc(C#N)c3ncccc23)CC(C(=O)NC2CCCCC2O)O1` (stereo not shown) [ER-897938], the IC50 was 16 nM.

Turning to `CC1CN(c2ccc(C#N)c3ncccc23)CC(C(=O)NCC2CNC2)O1` (stereo not shown) [ER-899020], the IC50 turned out to be 35 nM.

Regarding `Cc1cc(CN2CCC(N3CCCCC3)CC2)cc(-c2ccc(C#N)c3ncccc23)c1` [ER-889504], the IC50 is 2 nM.

`CCC1CCCCN1CC1CN(c2ccc(C#N)c3ncccc23)CC(C)O1` (stereo not shown) [ER-886958]: the IC50 came out at 34 nM.

As to `CC1CN(c2ccc(C#N)c3ncccc23)CC(C(=O)Nc2ncns2)O1` (stereo not shown) [ER-898922], the IC50 is greater than 1000 nM.

For `CC(=O)N1CCC(C2CCN(CC3CN(c4ccc(C#N)c5ncccc45)CC(C)O3)CC2)CC1` (stereo not shown) [ER-890113], the IC50 is 22 nM.

Consider `CC1CN(c2ccc(C#N)c3ncccc23)CC(CN2CC(O)CC2CO)O1` (stereo not shown) [ER-887262], for which the concentration for half-maximal inhibition (IC50) is 103 nM.

As to `CC1CN(CC2CN(c3ccc(C#N)c4ncccc34)CC(C)O2)C(C)CN1` (stereo not shown) [ER-887260], the IC50 was determined as 4 nM.

Turning to `CC(O)CNC(=O)C1CN(c2ccc(C#N)c3ncccc23)CC(C)O1` (stereo not shown) [ER-897445], the IC50 amounted to 104 nM.

Turning to `CC1CN(c2ccc(C#N)c3ncccc23)CC(C(=O)N2CC3CNCC3C2)O1` (stereo not shown) [ER-899367], the 50% inhibitory concentration (IC50) turned out to be 12 nM.

Regarding `Cc1nn(C)cc1S(=O)(=O)NC1CCN(C[C@H]2CN(c3ccc(C#N)c4ncccc34)C[C@@H](C)O2)CC1` [ER-894160], the half-maximal inhibitory concentration (IC50) came to 11 nM.

`CC1CN(c2ccc(C#N)c3ncccc23)CC(CN2CCCC(O)C2)O1` (stereo not shown) [ER-886951]: the IC50 amounted to 79 nM.

Take `C[C@@H]1CN(c2ccc(C#N)c3ncccc23)C[C@H](Cn2cc(C3CCCCC3)nn2)O1` [ER-888603]: the IC50 was 7 nM.

For the molecule `CC1CN(c2ccc(C#N)c3ncccc23)CC(C(=O)NC2CC3(CNC3)C2)O1` (stereo not shown) [ER-899479], the IC50 came to 2 nM.

Regarding `C[C@@H]1CN(c2ccc(C#N)c3ncccc23)C[C@H](C(=O)N2CCC(N)CC2)O1` [ER-899588], the IC50 amounted to 7 nM.

Take `C[C@H]1CN(c2ccc(C#N)c3ncccc23)C[C@@H](CCl)O1` [ER-886134]: the half-maximal inhibitory concentration (IC50) came out at 277 nM.

Turning to `C[C@@H]1CN(c2ccc(C#N)c3ncccc23)C[C@H](CN2CCNC(=O)[C@H]2C)O1` [ER-894483], the IC50 was determined as 209 nM.

As for `C[C@@H]1CN(c2ccc(C#N)c3ncccc23)C[C@H](C(=O)N2CC3(CCCNC3)C2)O1` [ER-899021], the IC50 stood at 5 nM.

As for `CC1CN(c2ccc(C#N)c3ncccc23)CC(C(=O)NCCF)O1` (stereo not shown) [ER-898914], the 50% inhibitory concentration (IC50) was determined as 168 nM.

Take `C[C@@H]1CN(c2ccc(C#N)c3ncccc23)C[C@H](CN2CC[C@H](NC(=O)c3ccccc3)C2)O1` [ER-894548]: the IC50 is 28 nM.

Consider `C[C@@H]1CCN(c2ccc(C#N)c3ncccc23)C[C@H](CN2CCC(N3CCCCC3)CC2)O1` [ER-889822], for which the half-inhibitory concentration (IC50) worked out at 25 nM.

Regarding `CC1CN(CC2CN(c3ccc(C#N)c4ncccc34)CC(C)O2)CC(CO)O1` (stereo not shown) [ER-888205], the IC50 turned out to be 40 nM.

Turning to `CC1CN(c2ccc(C#N)c3ncccc23)CC(C(=O)NCC2COC2)O1` (stereo not shown) [ER-899121], the IC50 was 142 nM.

On to `C[C@@H]1CN(c2ccc(C#N)c3ncccc23)C[C@H](CNc2cccc(-c3ccccc3)n2)O1` [ER-887589], for which the IC50 amounted to 36 nM.

On to `CC(C(=O)NC[C@H]1CN(c2ccc(C#N)c3ncccc23)C[C@@H](C)O1)c1ccccc1` (stereo partly shown) [ER-886360], for which the IC50 was 486 nM.

Regarding `COCCNC(=O)C1CN(c2ccc(C#N)c3ncccc23)CC(C)O1` (stereo not shown) [ER-897385], the IC50 came to 142 nM.

With `C[C@@H]1CN(c2ccc(C#N)c3ncccc23)C[C@H](Cn2cc(-c3ccccc3)nn2)O1` [ER-888604], the IC50 was 6 nM.

Regarding `COc1cccc(NC[C@H]2CN(c3ccc(C#N)c4ncccc34)C[C@@H](C)O2)n1` [ER-886859], the IC50 turned out to be 107 nM.

Turning to `C[C@@H]1CN(c2ccc(C#N)c3ncccc23)C[C@H](CNc2ccc3cccnc3n2)O1` [ER-888289], the IC50 is 11 nM.

Take `CC1CN(c2ccc(C#N)c3ncccc23)CC(CN2CCN(c3ccncc3)CC2)O1` (stereo not shown) [ER-888286]: the IC50 was determined as 223 nM.

As to `CC1CN(c2ccc(C#N)c3ncccc23)CC(C(=O)NC(CO)C(C)C)O1` (stereo not shown) [ER-897828], the IC50 turned out to be 21 nM.

With `CC1CN(c2ccc(C#N)c3ncccc23)CC(C(=O)NCC2(F)CCNCC2)O1` (stereo not shown) [ER-899019], the IC50 came to 14 nM.

With `Cc1nn(C)cc1C(=O)NC1CCN(CC2CN(c3ccc(C#N)c4ncccc34)CC(C)O2)CC1` (stereo not shown) [ER-893926], the IC50 came out at 8 nM.

In the case of `CC1CN(c2ccc(C#N)c3ncccc23)CC(C(=O)NCCC(F)(F)F)O1` (stereo not shown) [ER-898565], the half-maximal inhibitory concentration (IC50) was 198 nM.

Regarding `C[C@@H]1CN(c2ccc(C#N)c3ncccc23)C[C@H](CN2CCC(NS(=O)(=O)c3ccccc3)CC2)O1` [ER-894149], the IC50 was found to be 31 nM.

`CNC(=O)[C@H]1CN(c2ccc(C#N)c3ncccc23)C[C@@H](C)O1` [ER-899431]: the half-maximal inhibitory concentration (IC50) was determined as 347 nM.

For `CC1CN(c2ccc(C#N)c3ncccc23)CC(CN2CCC(NS(=O)(=O)c3ccc(F)cc3)CC2)O1` (stereo not shown) [ER-894150], the half-maximal inhibitory concentration (IC50) worked out at 4 nM.

On to `CCC(CO)NC(=O)C1CN(c2ccc(C#N)c3ncccc23)CC(C)O1` (stereo not shown) [ER-897827], for which the IC50 came out at 39 nM.

`CC1CN(c2ccc(C#N)c3ncccc23)CC(C(=O)NCc2ccn[nH]2)O1` (stereo not shown) [ER-899287]: the IC50 was 120 nM.

`C[C@@H]1CN(c2ccc(C#N)c3ncccc23)C[C@H](C(=O)NC2(C#N)CC2)O1` [ER-898921]: the IC50 was 302 nM.

Consider `C[C@@H]1CN(c2ccc(C#N)c3ncccc23)C[C@H](CNc2cnccn2)O1` [ER-888896], for which the half-maximal inhibitory concentration (IC50) is 50 nM.

As for `C[C@@H]1CN(c2ccc(C#N)c3ncccc23)C[C@H](CNc2ccnn2-c2ccccc2)O1` [ER-886860], the half-inhibitory concentration (IC50) came to 240 nM.

For `CC1CN(c2ccc(C#N)c3ncccc23)CC(CN2CC(N3CCN(C)CC3)C2)O1` (stereo not shown) [ER-890108], the half-maximal inhibitory concentration (IC50) stood at 9 nM.

With `CC(C)C(=O)N[C@H]1CCN(C[C@H]2CN(c3ccc(C#N)c4ncccc34)C[C@@H](C)O2)C1` [ER-894547], the concentration for half-maximal inhibition (IC50) was 12 nM.

Take `CC1CN(c2ccc(C#N)c3ncccc23)CC(C(=O)NC2CCCNC2)O1` (stereo not shown) [ER-897967]: the 50% inhibitory concentration (IC50) was 13 nM.

In the case of `C[C@@H]1CN(c2ccc(C#N)c3ncccc23)C[C@H](C(=O)NCCN(C)C)O1` [ER-899154], the IC50 is 14 nM.
